Format in all cases: cell-based
One experiment concerns the target hROMK1 (Kir1.1) (Homo sapiens (Human), UniProt P48048). The experiment can be described thus: 86Rb+ Efflux Assay. The conditions noted are these: CHO-DHFR- cells stably expressing hROMK1; 35 min incubation. How it is done:
(§1) Several assays may be used to measure functional inhibition of the ROMK channel by compounds of the instant invention. One primary assay that can be used is a functional ^86Rb^+ efflux assay that measures the ability of ROMK to permeate ^86Rb^+, in the absence or presence of test compound. Under control conditions, cells loaded with ^86Rb^+ and incubated in Rb^+-free medium display a time-dependent efflux of the isotope, the rate of which depends on number of functional channels. […] This assay has been established with cell lines expressing either human, rat or dog ROMK channels, and can operate in 96- or 384-well format. Importantly, the human, rat, and dog ^86Rb^+ efflux assays can be carried out in the presence of up to 100% serum allowing, therefore, an accurate estimation of the effect of protein binding on the inhibitory activity of compounds of interest. Another ROMK functional assay makes use of the ability of thallium to permeate through open ROMK channels and increase the fluorescence of a dye previously loaded into the cells. Under control conditions, cells loaded with dye and exposed to thallium-containing medium display a time-dependent increase in fluorescence, the rate of which depends on number of functional channels. When cells are incubated in the presence of a channel inhibitor, the increase in fluorescence is attenuated in a concentration-dependent manner, and IC50 values of inhibition by compounds can be accurately determined. This assay has been established with cell lines expressing either human, or rat ROMK channels, and operates in 384-well format. Another assay for evaluation of the compounds of the instant invention and for evaluation of mechanism of action of compounds of Formula I relies on the measurement of the electrical current that is generated as potassium permeates through the channel. For these electrophysiological experiments, three different platforms, IonWorks, QPatch, or manual patch clamp, are used, depending on the experimental protocol under consideration. IonWorks operates in a 384-well format and allows accurate determination of IC50 values for inhibitors.

A further experiment deals with hROMK (hKir1.1) (Homo sapiens (Human), UniProt P48048). The experiment can be described thus: Thallium Flux Assay. Conditions: HEK293 cells stably expressing hROMK; FLIPR-Tetra, 30 min incubation. How it is done:
as §1
To dislodge the cell, gently bang the side of the flask with your hand. […] Centrifuge at 1,500 rpm for 6 min followed by resuspension in complete growth media and determine cell concentration. […] Under ideal growth conditions and appropriate tissue culture practices, this cell line is stable for 40-45 passages.
FluxOR Kit Components (Invitrogen F10017)
• FluxOR™ Reagent (Component A) • FluxOR™ Assay Buffer (Component B)—10× Concentrate • PowerLoad™ Concentrate (Component C)—100× Concentrate • Probenecid (Component D)—Lyophilized sample is kept at −20° C. Water soluble, 100× after solubilization in 1 ml water. […] Store at 4° C. • Thallium sulfate (Tl2SO4) Concentrate (Component G)—50 mM in water. […] Can be stored at room temperature • Stimulant Buffer (prepared at 5× final concentration in 1× FluxOR™ Chloride-Free Buffer): 7.5 mM Thallium sulfate and 0.75 mM Potassium sulfate (to give a final assay concentration of 3 mM Thallium/0.3 mM Potassium). Store at 4° C. when not in use. If kept sterile, this solution is good for months.

The next experiment has as its target Kir1.1 (ROMK1) (Homo sapiens (Human), UniProt P48048). The experiment can be described thus: ROMK Electrophysiology Assay (IonWorks Quattro whole cell voltage clamp). Conditions: Chinese hamster ovary cells stably expressing Kir1.1; block at voltage step to 0 mV, 6 min compound incubation. How it is done:
as §1
Chinese hamster ovary cells stably expressing Kir1.1 channels were maintained in T-75 flasks in cell culture media in a humidified 10% CO2 incubator at 37° C. Prior to an experiment, Kir1.1 expression was induced by overnight incubation with 1 mM sodium butyrate. […] After centrifugation, the cell pellet was resuspended in approximately 4.0 ml of bath solution and placed in the IonWorks instrument. The intracellular solution consisted of (in mM): 80 K gluconate, 40 KCl, 20 KF, 3.2 MgCl2, 3 EGTA, 5 Hepes, pH 7.4. […] Current amplitudes were measured using the IonWorks software.
(In general: In patch-clamp work, channel activity is measured electrically.)

One may read the IC50 as the concentration that inhibits the measured activity by half.

hROMK (hKir1.1), sequence (P48048 whole entry): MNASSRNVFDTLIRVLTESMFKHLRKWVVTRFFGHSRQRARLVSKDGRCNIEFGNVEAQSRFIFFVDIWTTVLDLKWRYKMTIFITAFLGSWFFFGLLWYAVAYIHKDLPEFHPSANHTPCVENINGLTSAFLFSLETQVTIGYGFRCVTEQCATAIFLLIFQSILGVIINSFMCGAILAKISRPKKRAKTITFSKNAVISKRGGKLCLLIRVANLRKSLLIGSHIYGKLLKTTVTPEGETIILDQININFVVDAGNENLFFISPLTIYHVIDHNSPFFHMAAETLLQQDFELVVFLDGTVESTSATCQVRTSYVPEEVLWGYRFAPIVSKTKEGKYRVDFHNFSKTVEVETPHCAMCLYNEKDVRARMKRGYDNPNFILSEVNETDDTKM
Kir1.1 (ROMK1), sequence (P48048 whole entry, species assumed): as the sequence (P48048 whole entry) above
hROMK1 (Kir1.1), sequence (P48048 whole entry): as above

As to `O=C1OCc2c1ccc(C(O)CN1CCN(CC(O)c3ccc4c(c3Cl)COC4=O)CC1)c2Cl` (centres unmarked) [Example 5], the IC50 against hROMK1 (Kir1.1) came to 88 nM; on hROMK (hKir1.1) it was 13 nM; against Kir1.1 (ROMK1), 7 nM.
On the same counts, the results for `Cc1c(CCN2CCN(CC(O)c3ccc4c(c3C)COC4=O)CC2)ccc2c1COC2=O` (centres unmarked) [Example 12, 5-(1-hydroxy-2-{4-[2-(4-methyl-1-oxo-1,3-dihydro-2-benzofuran-5-yl)ethyl]piperazine-1-yl}ethyl)-4-methyl-2-benzofuran-1(3H)-one] are 46 nM, 6 nM and 13 nM.
On the same counts, the results for `Cc1c(C(O)CN2CCN(CC3CCc4c3ccc3c4COC3=O)CC2)ccc2c1COC2=O` (centres unmarked) [Example 20, 6-({4-[2-hydroxy-2-(4-methyl-1-oxo-1,3-dihydro-2-benzofuran-5-yl)ethyl]piperazin-1-yl}methyl)-1,6,7,8-tetrahydro-3H-indeno[4,5-c]furan-3-one] are 36 nM, 7 nM and 14 nM.
For `COc1cc(C(O)CN2CCN(CCc3ccc4c(c3C)COC4=O)CC2)c(F)cc1C#N` (centres unmarked) [Example 24, 5-fluoro-4-(1-hydroxy-2-{4-[2-(4-methyl-1-oxo-1,3-dihydro-2-benzofuran-5-yl)ethyl]piperazin-1-yl}ethyl)-2-(methyloxy)benzonitrile], the half-inhibitory concentration (IC50) on hROMK1 (Kir1.1) was 130 nM; at hROMK (hKir1.1), 26 nM.
As for `Cc1c(C(O)CN2CCN(CC3CCc4c3ccc(F)c4C#N)CC2)ccc2c1COC2=O` (centres unmarked) [Example 55, 5-fluoro-1-({4-[2-hydroxy-2-(4-methyl-1-oxo-1,3-dihydro-2-benzofuran-5-yl)ethyl]piperazin-1-yl}methyl)-2,3-dihydro-1H-indene-4-carbonitrile], the IC50 came out at 47 nM on hROMK1 (Kir1.1), 15 nM against hROMK (hKir1.1) and 23 nM at Kir1.1 (ROMK1).

Values taken from patent US9018211B2, “Inhibitors of the renal outer medullary potassium channel” (Merck Sharp & Dohme Corp., priority 2009, dated 2015).
